Experimental data from US20230157939A1, “PERSONAL CARE COMPOSITIONS WITH ENHANCED SOLUBILITY ACTIVES” (Conopco, Inc., d/b/a UNILEVER, priority 2020, published 2023).

What was measured:
[1] = Odor and H2S generation (H2S test strip) of cystine / cystine derivative samples; assay type: physicochemical; conditions: summary of the Examples; monitored as H2S
Protocol: Evaluation of Cystine Crystallization and Odor in the Presence of Cystine Derivatives Samples for cystine crystallization evaluation were prepared by dissolving cystine (10 mg) alone or in combination with NDAC (N,N′-diacetyl-L-cystine) (55 mg), NACys (N-acetyl-L-cysteine) (28 mg) or L-cystine diethyl ester dihydrochloride (DEC) (62 mg) in 0.775M NaOH (1 ml) or Epilife™ cell culture media (60 uM calcium chloride, HEPES/bicarbonate buffered; Thermofisher Scientific) (1 ml) and the pH adjusted to 7.0 by adding HCl (12.1M). A hydrogen sulfide (H2S) test strip (Sigma) was placed above the sample solution and the samples sealed. Visual appearance, odor and H2S generation (unchanged test strip white color=no H2S generated; changed test strip brown/black color=H2S generated) were monitored up to 4 months and recorded.

[2] = according to Zhu, et al.; cited from earlier work
[3] = at 25° C.; cited from earlier work

Row | odor of the cystine derivative, in words [1] | Structure (SMILES) | other results
1 | upleasant sulfurous odor | CC(=O)N[C@@H](CS)C(=O)O [NACys, N-Acetyl-L-Cysteine] | –
2 | – | CC(=O)N[C@@H](CSSC[C@H](NC(C)=O)C(=O)O)C(=O)O [NDAC, N,N′-Diacetyl-L-Cystine] | inhibitor of cystine crystal growth [2]: not effective
3 | – | N[C@@H](CSSC[C@H](N)C(=O)O)C(=O)O [cystine, L-Cystine] | solubility of cystine in water [3]: 112 µg/mL
4 | unpleasant sulfurous odor | CCOC(=O)[C@@H](N)CSSC[C@H](N)C(=O)OCC [DEC, L-Cystine diethyl ester] | –
